In assay [1] the target is T1, S. aureus urease (Staphylococcus aureus, UniProt P67403).
T1 construct: gene ureC; native urease in cell lysates of S. aureus LAC (USA300); with UreA, UreB (urease subunits)
Description: urea hydrolysis in lysates by coupled enzyme assay; activity lost in ureD::Tn mutant and restored by complementation. It is filed as cell-based.

Assay [2] has as its target T2, S. aureus urease (Staphylococcus aureus, UniProt Q2FEK3).
T2 construct: gene ureC; native urease in cell-free lysates of S. aureus LAC (USA300); with UreA, UreB (urease subunits)
Description: urease activity in cell-free lysate with […] urea; coupled glutamate dehydrogenase/NADH assay. The format is biochemical.

Another assay deals with T3, jack bean urease (Canavalia ensiformis, UniProt P07374).
T3 construct: commercially purified jack bean urease
T3 sequence (P07374 whole entry, looked up): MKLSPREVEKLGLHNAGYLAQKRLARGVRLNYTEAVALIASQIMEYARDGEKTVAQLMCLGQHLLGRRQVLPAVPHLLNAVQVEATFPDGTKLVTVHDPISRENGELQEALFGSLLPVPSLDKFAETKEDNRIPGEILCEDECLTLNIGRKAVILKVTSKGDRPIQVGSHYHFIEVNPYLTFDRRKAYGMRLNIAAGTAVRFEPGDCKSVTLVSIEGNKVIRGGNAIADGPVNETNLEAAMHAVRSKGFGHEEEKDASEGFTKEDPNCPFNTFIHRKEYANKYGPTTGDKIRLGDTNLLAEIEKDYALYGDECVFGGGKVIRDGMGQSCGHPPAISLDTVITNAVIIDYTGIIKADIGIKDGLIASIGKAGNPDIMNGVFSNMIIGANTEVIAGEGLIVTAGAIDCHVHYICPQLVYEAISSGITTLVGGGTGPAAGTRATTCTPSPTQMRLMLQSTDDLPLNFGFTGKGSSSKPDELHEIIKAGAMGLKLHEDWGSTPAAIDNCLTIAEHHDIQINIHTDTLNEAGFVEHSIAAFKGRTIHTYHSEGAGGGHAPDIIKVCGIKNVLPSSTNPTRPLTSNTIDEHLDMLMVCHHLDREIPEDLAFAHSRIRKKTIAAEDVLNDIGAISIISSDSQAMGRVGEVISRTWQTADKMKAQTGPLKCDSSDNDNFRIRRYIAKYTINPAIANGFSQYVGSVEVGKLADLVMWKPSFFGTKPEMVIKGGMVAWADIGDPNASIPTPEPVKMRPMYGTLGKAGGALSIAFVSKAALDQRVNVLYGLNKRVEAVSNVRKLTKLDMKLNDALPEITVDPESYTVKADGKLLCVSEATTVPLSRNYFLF
Kind of assay: inhibition of purified urease; coupled glutamate dehydrogenase/NADH depletion assay at […] nm. It is filed as biochemical.

SMILES strings stand for the structures.

T1 sequence (P67403 whole entry): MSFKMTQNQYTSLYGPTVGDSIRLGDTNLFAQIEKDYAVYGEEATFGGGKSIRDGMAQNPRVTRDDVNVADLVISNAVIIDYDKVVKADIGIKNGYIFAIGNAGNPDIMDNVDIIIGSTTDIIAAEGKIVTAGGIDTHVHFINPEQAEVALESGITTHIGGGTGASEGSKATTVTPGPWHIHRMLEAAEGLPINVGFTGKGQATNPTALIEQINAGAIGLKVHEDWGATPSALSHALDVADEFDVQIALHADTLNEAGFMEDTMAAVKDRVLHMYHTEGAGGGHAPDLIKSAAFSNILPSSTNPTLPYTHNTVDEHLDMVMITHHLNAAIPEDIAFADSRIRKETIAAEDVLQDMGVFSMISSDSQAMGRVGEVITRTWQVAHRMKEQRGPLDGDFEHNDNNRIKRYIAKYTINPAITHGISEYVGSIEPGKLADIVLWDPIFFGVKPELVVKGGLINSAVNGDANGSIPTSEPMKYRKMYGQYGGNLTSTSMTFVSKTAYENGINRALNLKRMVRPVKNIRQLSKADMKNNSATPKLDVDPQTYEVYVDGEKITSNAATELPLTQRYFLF
T2 sequence (Q2FEK4 whole entry): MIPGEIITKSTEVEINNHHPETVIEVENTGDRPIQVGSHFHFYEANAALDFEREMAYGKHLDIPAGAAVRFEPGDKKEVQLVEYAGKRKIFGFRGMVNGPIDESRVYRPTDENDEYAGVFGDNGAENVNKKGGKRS
T2 sequence (Q2FEK3 whole entry): as the sequence (P67403 whole entry) above
T2 sequence (Q2FEK5 whole entry, further chain): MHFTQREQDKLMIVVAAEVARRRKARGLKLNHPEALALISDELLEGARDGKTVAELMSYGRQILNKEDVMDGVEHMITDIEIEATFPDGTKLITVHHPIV

For `NC(N)=O` [urea], at S. aureus urease [1], the “urea hydrolysis in lysates by coupled enzyme assay; activity lost in ureD::Tn mu” value is “loss of urease activity in the mutant strain and reconstitution of activity in the complementation strain using a coupled enzyme assay”.

For the compound `NP(N)(=O)NC(=O)c1ccc(F)cc1` [FF, N-(diaminophosphinyl)-4-fluorobenzenamide], the IC50 was 34.2 nM on S. aureus urease [2] and 131 nM at jack bean urease.

For the origin of these results see paper PMC12548400, “Urease promotes pH homeostasis and growth of Staphylococcus aureus in skin-like conditions” (Journal of Bacteriology, 2025).
